Results published in US20250059139A1, “COMPOUNDS FOR TREATMENT OF CANCER” (THE JOHNS HOPKINS UNIVERSITY, priority 2021, published 2025).

How the values were obtained:
human AHR = target: T1, human AHR (Homo sapiens, UniProt P35869); assay: Photo-affinity ligand (PAL) competitive binding to human AHR in liver cytosol of hAHR transgenic mice
T1 construct: from tissue; host or cells: liver cytosol of liver-specific hAHR transgenic mice
Method: AHR Binding Assay. Photo-affinity competitive ligand binding to the human AHR was performed as described previously (Brennen 2021).
This raises the issue of whether the induction of AHR target genes is a result of TasQ or one of its metabolites binds to AHR as a ligand. To test whether TasQ is an AHR ligand, liver cytosol lacking microsomal CYPs was isolated from liver-specific human AHR (hAHR)-expressing transgenic mice.

[1] = system: human umbilical vein endothelial cells (HUVECs); assay: Three dimensional (3D) endothelial sprouting assay; assay type: cell-based; settings: HUVEC, CM-supplemented 3D-fibrin cultures, read-out: IC90 for inhibiting endothelial cell sprouting
Method: (§1) Three Dimensional (3D) Endothelial Sprouting Assay. The assay was performed using a minimum of 3 replicate wells of a 48 well tissue culture plate per drug dose per experiment, repeated 3 independent times in which human umbilical vein endothelial cells (HUVECs) obtained from Lonza Walkersville Inc (Walkersville, MD) attached to gelatin-coated dextran microcarrier bead are embedded in a fibrin matrix as described previously (Brennen et al. Oncotarget 7, 71298-71308 (2016)).
Besides its therapeutic effects on cancer cells, TasQ's anti-cancer efficacy also involves its dose-dependent anti-angiogenic activity (see, e.g., Isaacs 2006, Olsson 2010, Dalrymple 2012), Isaacs 2013, Isaacs 2014, Brennen 2016). To clarify the MoA for this anti-angiogenic activity, a 3-dimensional (3D) endothelial cell sprouting assay was used. In this assay, human umbilical vein endothelial cells (HUVECs) in basal media supplemented with VEGF, EGF, FGF, IGF1 and 2% FBS in standard 2D cultures are attached to collagen-coated beads embedded in a 3D-fibrin gel in the same growth factor-supplemented media. […] This lack of sprouting is associated with an upregulation in Mef-2c mRNA (Table 2) and protein (FIG. 38), and its target genes (Table 2) like Alpha 2 Macroglobulin (A2M). […]

solid malignances = settings: cited from earlier work
HUVEC = assay: mRNA expression of HUVEC in 3D-fibrin gels with HDF-conditioned media; assay type: cell-based, human; settings: Fibroblast Conditioned Media: Yes, TasQ (10 μM): Yes
Method: as §1
Besides its therapeutic effects on cancer cells, TasQ's anti-cancer efficacy also involves its dose-dependent anti-angiogenic activity (see, e.g., Isaacs 2006, Olsson 2010, Dalrymple 2012), Isaacs 2013, Isaacs 2014, Brennen 2016). To clarify the MoA for this anti-angiogenic activity, a 3-dimensional (3D) endothelial cell sprouting assay was used. In this assay, human umbilical vein endothelial cells (HUVECs) in basal media supplemented with VEGF, EGF, FGF, IGF1 and 2% FBS in standard 2D cultures are attached to collagen-coated beads embedded in a 3D-fibrin gel in the same growth factor-supplemented media. […] This lack of sprouting is associated with an upregulation in Mef-2c mRNA (Table 2) and protein (FIG. 38), and its target genes (Table 2) like Alpha 2 Macroglobulin (A2M). […] When the 3D-fibrin gels are further supplemented with conditioned media (CM) from human dermal fibroblasts (HDF) to provide additional angiogenic factors typically present within the TME A2M (Nakatsu et al. Microvasc Res 66, 102-112 (2003)), expression of the MEF-2c target genes, including A2M, is blocked (Table 2); enabling endothelial cell proliferation and invasion into the gels (i.e., “sprouting”); eventually forming canalized and anastomosing neovascular tubes within 7 days (FIG. 37). Importantly, 3D-sprouting occurs (FIG. 37), even when HIF-1α expression is KD in the HUVEC cells (FIG. 39).

[2] = system: prostate cancer xenografts; settings: daily oral 10 mg/kg/d; cited from earlier work
CWR22-RH PDXs = assay: RNA sequencing of in vivo growing CWR22-RH PDXs in castrate hosts; design: species or system human; settings: TasQ 10 mg/kg/d orally vs. vehicle control
Method: RNA Sequencing Analysis of In vivo Growing Xenografts. This was performed as described previously (Brennen 2021; Zhu 2020) with read counts normalized per kilo base-pair gene length and per million reads library size (RPKM).
RNAseq analysis was performed on CWR22-RH PDX tissue growing in the compromised hypoxic TME of castrated hosts with or without daily oral TasQ (10 mg/kg/d). Such dosing produces optimal CWR22-RH growth inhibition (FIG. 1) consistent with downregulation of the expression of proliferation-associated target genes in addition to the AR and its target genes (Table 1A). In addition, such daily TasQ treatment lowers HIF-1α protein in tumors by >50% (Olsson 2010) suppressing HIF1-dependent cell survival target genes (Table 1B). […] As predicted at this drug level, elevated expression of AHR and a series of its target genes is observed (Table 1C).

T1 sequence (P35869 11-848): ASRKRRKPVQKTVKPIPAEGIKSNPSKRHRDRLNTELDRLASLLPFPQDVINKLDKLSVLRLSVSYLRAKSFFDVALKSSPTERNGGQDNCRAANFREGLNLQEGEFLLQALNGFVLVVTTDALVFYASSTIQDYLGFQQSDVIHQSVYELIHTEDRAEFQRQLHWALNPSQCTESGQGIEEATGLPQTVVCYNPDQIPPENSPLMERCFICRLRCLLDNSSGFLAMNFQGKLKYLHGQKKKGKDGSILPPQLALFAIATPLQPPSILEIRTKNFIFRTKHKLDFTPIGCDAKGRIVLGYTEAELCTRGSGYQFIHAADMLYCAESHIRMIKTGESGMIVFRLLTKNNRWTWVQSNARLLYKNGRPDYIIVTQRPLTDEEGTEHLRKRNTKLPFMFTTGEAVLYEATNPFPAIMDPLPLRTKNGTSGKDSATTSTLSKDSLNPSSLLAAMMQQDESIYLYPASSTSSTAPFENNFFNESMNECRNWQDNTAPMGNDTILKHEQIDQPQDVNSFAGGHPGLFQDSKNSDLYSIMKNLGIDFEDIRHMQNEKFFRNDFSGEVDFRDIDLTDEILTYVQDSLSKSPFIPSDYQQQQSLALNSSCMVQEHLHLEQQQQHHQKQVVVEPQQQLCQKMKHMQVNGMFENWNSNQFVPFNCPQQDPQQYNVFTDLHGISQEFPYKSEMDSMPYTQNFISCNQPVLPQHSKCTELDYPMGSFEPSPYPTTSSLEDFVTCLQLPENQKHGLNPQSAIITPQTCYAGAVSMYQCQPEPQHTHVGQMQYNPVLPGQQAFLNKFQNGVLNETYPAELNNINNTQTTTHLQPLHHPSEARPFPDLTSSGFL

In the case of COc1cccc2c1c(O)c(C(=O)N(c1ccc(C(F)(F)F)cc1)C1CCCCC1)c(=O)n2C [ESATA-20], the “fold lower binding affinity than TasQ” value (human AHR; competitive PAL AHR binding assay and cell-based AHR-promoter assay) is reported as 10 fold and the IC90 [1] is reported as 1000 nM.

For COc1cccc2c1c(O)c(C(=O)N(C)c1ccc(C(F)(F)F)cc1)c(=O)n2C [TasQ, Tasquinimod], the EC50 (human AHR; 20 min competitive binding, liver cytosol of hAHR transgenic mice, read-out: EC50 as competitive ligand for human AHR (PAL assay)) is listed as 1000 nM, the IC90 [1] is listed as 10000 nM and the “fold increase in anti-tumor efficacy compared to Linomide” value (solid malignances; in vivo) is listed as greater than 25 fold. The “fold enhanced potency in antiangiogenic and anti-metastatic ability” value (solid malignances; preclinical studies, vs. first-generation Linomide) was 30-60 fold, the A2M Gene Expression (FPKM), Mef-2c Target Gene (HUVEC) was 257 FPKM and the Adamt59 Gene Expression (FPKM), Mef-2c Target Gene (HUVEC) was 89.2 FPKM. For the same compound, the Apinr Gene Expression (FPKM), Mef-2c Target Gene (HUVEC) was 81.1 FPKM, the Ets1 Gene Expression (FPKM) (HUVEC) was 73 FPKM and the Ets2 Gene Expression (FPKM) (HUVEC) was 45.2 FPKM. The KDR (VEGFR2) Gene Expression (FPKM), Ets Target Gene (HUVEC) was 99.3 FPKM, the “LI1 (VEGFR1) Gene Expression (FPKM), Ets Target Gene” value (HUVEC) was 106,830 FPKM and the “Mef-2c Target Gene Expression, Gene Expression (FPKM)” value (HUVEC) was 21,217 FPKM. For the same compound, the “NR4A1 Gene Expression (FPKM), Mef-2c Target Gene” value (HUVEC) was 1,598 FPKM, the “NR4A2 Gene Expression (FPKM), Mef-2c Target Gene” value (HUVEC) was 297 FPKM and the “SerpinB1 Gene Expression (FPKM), Mef-2c Target Gene” value (HUVEC) was 4,926 FPKM. For the same compound, the “Spry Gene Expression (FPKM), Mef-2c Target Gene” value (HUVEC) was 11,728 FPKM, the “Stc1 Gene Expression (FPKM), Mef-2c Target Gene” value (HUVEC) was 18,619 FPKM and the enhancement of hypoxia [2] was greater than 2 fold. For the same compound, the “pO2 in the TME” value [2] was 1.4+/−1.0 mmHg, the “AGR2, AHR Target Genes (Fold Increases by TasQ)” value (CWR22-RH PDXs) was 5.5 fold and the “AHR, AHR Target Genes (Fold Increases by TasQ)” value (CWR22-RH PDXs) was 3.0 fold. For the same compound, the “ALDOC, HIF-1α Target Genes (Fold Decrease by TasQ)” value (CWR22-RH PDXs) was −1.4 fold, the “AR, AR Target Genes (Fold Decrease by TasQ)” value (CWR22-RH PDXs) was −2.0 fold and the “BHLHE41, MEF-2 Target Genes (Fold Increase by TasQ)” value (CWR22-RH PDXs) was 2.9 fold. For the same compound, the “BNIP3, HIF-1α Target Genes (Fold Decrease by TasQ)” value (CWR22-RH PDXs) was −1.9 fold, the “CA12, MEF-2 Target Genes (Fold Increase by TasQ)” value (CWR22-RH PDXs) was 2.7 fold and the “CAPN2, MEF-2 Target Genes (Fold Increase by TasQ)” value (CWR22-RH PDXs) was 1.6 fold. The “CDC6, Proliferation Target Genes (Fold Decrease by TasQ)” value (CWR22-RH PDXs) was −1.5 fold, the “CDT1, Proliferation Target Genes (Fold Decrease by TasQ)” value (CWR22-RH PDXs) was −2.2 fold and the “CEACAM1, MEF-2 Target Genes (Fold Increase by TasQ)” value (CWR22-RH PDXs) was 1.8 fold. The “CYP1B1, AHR Target Genes (Fold Increases by TasQ)” value (CWR22-RH PDXs) was 10.0 fold, the “DTYMK, Proliferation Target Genes (Fold Decrease by TasQ)” value (CWR22-RH PDXs) was −1.6 fold and the “E2F1, Proliferation Target Genes (Fold Decrease by TasQ)” value (CWR22-RH PDXs) was −2.0 fold. The “EDN1, MEF-2 Target Genes (Fold Increase by TasQ)” value (CWR22-RH PDXs) was 15.0 fold, the “GDF15, AHR Target Genes (Fold Increases by TasQ)” value (CWR22-RH PDXs) was 2.3 fold and the “HILPDA, HIF-1α Target Genes (Fold Decrease by TasQ)” value (CWR22-RH PDXs) was −1.7 fold. For the same compound, the “IGF1, HIF-1α Target Genes (Fold Decrease by TasQ)” value (CWR22-RH PDXs) was −11.0 fold, the “IGFBP2, HIF-1α Target Genes (Fold Decrease by TasQ)” value (CWR22-RH PDXs) was −1.8 fold and the “IGFBP5, HIF-1α Target Genes (Fold Decrease by TasQ)” value (CWR22-RH PDXs) was −18.0 fold. For the same compound, the “KLKP1, AR Target Genes (Fold Decrease by TasQ)” value (CWR22-RH PDXs) was −2.3 fold, the “LDHA, HIF-1α Target Genes (Fold Decrease by TasQ)” value (CWR22-RH PDXs) was −1.5 fold and the “LOX, HIF-1α Target Genes (Fold Decrease by TasQ)” value (CWR22-RH PDXs) was −4.0 fold. The “MCM2, Proliferation Target Genes (Fold Decrease by TasQ)” value (CWR22-RH PDXs) was −1.9 fold, the “MCM3, Proliferation Target Genes (Fold Decrease by TasQ)” value (CWR22-RH PDXs) was −1.6 fold and the “MCM5, Proliferation Target Genes (Fold Decrease by TasQ)” value (CWR22-RH PDXs) was −2.0 fold. The “MKI67, Proliferation Target Genes (Fold Decrease by TasQ)” value (CWR22-RH PDXs) was −1.7 fold, the “NKX3.1, AR Target Genes (Fold Decrease by TasQ)” value (CWR22-RH PDXs) was −2.3 fold and the “NQO1, AHR Target Genes (Fold Increases by TasQ)” value (CWR22-RH PDXs) was 2.9 fold. For the same compound, the “NR4A1, MEF-2 Target Genes (Fold Increase by TasQ)” value (CWR22-RH PDXs) was 1.4 fold, the “NR4A2, MEF-2 Target Genes (Fold Increase by TasQ)” value (CWR22-RH PDXs) was 1.8 fold and the “P4HA1, HIF-1α Target Genes (Fold Decrease by TasQ)” value (CWR22-RH PDXs) was −1.8 fold. The “PDK1, HIF-1α Target Genes (Fold Decrease by TasQ)” value (CWR22-RH PDXs) was −1.7 fold, the “PTN, HIF-1α Target Genes (Fold Decrease by TasQ)” value (CWR22-RH PDXs) was −6.1 fold and the “S100P, MEF-2 Target Genes (Fold Increase by TasQ)” value (CWR22-RH PDXs) was 5.7 fold. The “SLC45A3, AR Target Genes (Fold Decrease by TasQ)” value (CWR22-RH PDXs) was −3.7 fold, the “THB5, MEF-2 Target Genes (Fold Increase by TasQ)” value (CWR22-RH PDXs) was 8.0 fold and the “TIPARP, AHR Target Genes (Fold Increases by TasQ)” value (CWR22-RH PDXs) was 3.4 fold. The “TMPRSS2, AR Target Genes (Fold Decrease by TasQ)” value (CWR22-RH PDXs) was −1.9 fold, the “TNC, HIF-1α Target Genes (Fold Decrease by TasQ)” value (CWR22-RH PDXs) was −2.5 fold and the “TTR, HIF-1α Target Genes (Fold Decrease by TasQ)” value (CWR22-RH PDXs) was −3.8 fold. The “VEGFB, HIF-1α Target Genes (Fold Decrease by TasQ)” value (CWR22-RH PDXs) was −1.5 fold.
